Measured values: patent US12594292B2, “Antiviral prodrugs, intermediate-and long-acting formulations and methods” (priority 2022, dated 2026)

How the values were obtained:
[1] = tested on: SARS-CoV-2 isolate USA-WA1/2020; assay: SARS-CoV-2 infection in Calu-3 cells, qRT-PCR (Example 7); type: cell-based
SARS-CoV-2 [2] = assay: SARS-CoV-2 infection assay in Huh7.5 cells, nucleocapsid immunofluorescence (Example 6); type: cell-based; settings: MOI 0.1, 48 hours
[3] = tested on: SARS-CoV-2 isolate USA-WA1/2020; assay: SARS-CoV-2 infection in Vero E6 cells, qRT-PCR (Example 7); type: cell-based
[4] = tested on: SARS-CoV-2 isolate USA-WA1/2020; assay: SARS-CoV-2 infection in Vero E6 cells, qRT-PCR of Spike RNA (Example 3); type: cell-based
VERO E6 cells [5] = assay: Cell viability assay CellTiter-Glo, Vero E6 cells (Example 7)
SARS-CoV-2 [6] = assay: SARS-CoV-2 infection assay in TMPRSS2-Vero cells, nucleocapsid immunofluorescence (Example 6); type: cell-based; settings: MOI 0.01, 32 hours
Human Coronavirus 229E = Human Coronavirus 229E infected MRC-5 cells, CPE by MTT (Example 8); type: cell-based; settings: 229E in MRC-5 cells, 72 hours
VERO E6 cells [7] = assay: Cellular cytotoxicity in Vero E6 cells, MTT assay (Example 2); type: cell-based
Experimental: Ten thousand Vero E6 cells were seeded in 100 microliters of culture medium in 96 well plates. The following day serial two-fold dilutions of antiviral compounds or the DMSO-containing vehicle were added to each well. The USA WA-01 strain of SARS CoV-2 was added to each well at a multiplicity of infection of 0.1 thirty minutes later. Cells were incubated for 48 hours, washed twice in PBS and lysed with TRIzol. RNA was extracted using Directzol micro RNA columns. RNA was made into cDNA and assayed for the SARS CoV-2 spike protein and for a housekeeping gene (RPLPO) RNA by qPCR. Data represents the average of duplicate wells. Cellular cytotoxicity was also measured in VERO E6 cells. […] Cytotoxicity (CC50) was assessed using a commercially available MTT assay.

Caco-2 cells = assay: Cell viability assay CellTiter-Glo, Caco-2 cells (Example 7); settings: Caco-2 cells, CellTiter-Glo
Huh7.5 cells = assay: Cytotoxicity in Huh7.5 cells, nuclei count (Example 6); type: cell-based, human
VERO E6 cells [8] = assay: CellTiter-Glo luminescent cell viability assay, Vero E6 (Example 3); type: cell-based
Experimental: CellTiter-glo luminescent cell viability assay: Approximately 10^4 Vero E6 cells per well were seeded in opaque walled 96 well cell culture plates and incubated overnight. Compounds or controls were added at the indicated concentrations. […] Viability was calculated compared to untreated controls and CC50 values were calculated using Prism 8.
Determination of Cytotoxicity: The 50% cytotoxic concentrations (CC50) were determined with Cell Titer Glo (Cat. #G7570, Promega, Madison, WI) according to the manufacturer's instructions. The calculated CC50 values are shown in the foregoing table.
Relative viability was measured by CellTiter-Glo luminescent cell viability assay, as depicted at FIG. 2.

[9] = tested on: SARS-CoV-2 isolate USA-WA1/2020; assay: SARS-CoV-2 infection in Caco-2 cells, qRT-PCR (Example 7); type: cell-based
SRV A2 strain of RSV = assay: RSV infection in Hep-2 cells, CPE reduction; type: cell-based, respiratory syncytial virus; settings: RSV A2 in Hep-2 cells, 72 to 96 hours
Experimental: Methods: The SRV A2 strain of RSV was obtained from the ATCC. Ten thousand Hep-2 cells were seeded into each well of a 96-well plate in EMEM with 10% fetal bovine serum and 1% penicillin and streptomycin. Each well was inoculated with 100 TCID50 of virus. Two hours later wells were washed once with medium and serial four-fold dilutions of candidate antiviral drugs were added.

[10] = Vero E6 cells, MOI 0.01, 48 hours, mean±SD
[11] = based on the EC50 values, Vero E6
[12] = Caco-2 cells, MOI 0.01, 48 hours

Question: For CCCCCCCCCCCCCCCCCCOC[C@H](COP(=O)(O)OC[C@H]1O[C@@](C#N)(c2ccc3c(N)ncnn23)[C@H](O)[C@@H]1O)OCc1ccccc1 [Compound 15d, 1-O-octadecyl-2-O-benzyl-sn-glyceryl-phospho-RVn], which Selectivity ([1]; CC50/EC50, Calu-3 cells) is on record?
Answer: Its Selectivity is 327.

Question: And the EC90 ([1]; Calu-3 cells, MOI 0.01, 48 hours)?
Answer: The EC90 was 330 nM.

Question: And the EC50 ([1]; Calu-3 cells, MOI 0.01, 48 hours, listed as ODBG-P-RVn)?
Answer: Its EC50 is 300 nM.

Question: What about the EC50 (SARS-CoV-2 [2]) of the same molecule?
Answer: The EC50 was 138 nM.

Question: And the EC90 (SARS-CoV-2 [2])?
Answer: Its EC90 is 377 nM.

Question: What about the Selectivity ([3]; CC50/EC50, Vero E6 cells) of the same molecule?
Answer: Its Selectivity is 699.

Question: And the EC50 ([3]; Vero E6 cells, MOI 0.01, 48 hours)?
Answer: Its EC50 is 140 nM.

Question: What about the EC90 ([3]; Vero E6 cells, MOI 0.01, 48 hours, listed as ODBG-P-RVn, 15d) of the same molecule?
Answer: Its EC90 is 160 nM.

Question: What about the Selectivity ([4]; CC50/EC50, Vero E6) of the same molecule?
Answer: Its Selectivity is 240.

Question: And the EC50 [4, 10]?
Answer: The EC50 was 190 ± 23 nM.

Question: And the EC90 [4, 10]?
Answer: Its EC90 is 560 ± 0.2 nM.

Question: And the “times more active than RDV” value [4, 11]?
Answer: The value was 24.

Question: And the “times more active than RVn” value [4, 11]?
Answer: The value was 8.9.

Question: What about the CC50 (VERO E6 cells [5]) of the same molecule?
Answer: Its CC50 is 97900 nM.

Question: And the EC50 (SARS-CoV-2 [6])?
Answer: The EC50 was 205 nM.

Question: What about the EC90 (SARS-CoV-2 [6]) of the same molecule?
Answer: The EC90 was 432 nM.

Question: What about the EC50 (Human Coronavirus 229E) of the same molecule?
Answer: Its EC50 is 150 nM.

Question: And the CC50 (VERO E6 cells [7])?
Answer: Its CC50 is greater than 50000 nM.

Question: And the CC50 (Caco-2 cells)?
Answer: Its CC50 is 88400 nM.

Question: What about the CC50 (Huh7.5 cells) of the same molecule?
Answer: Its CC50 is greater than 20000 nM.

Question: And the CC50 (VERO E6 cells [8])?
Answer: Its CC50 is 46000 nM.

Question: What about the Selectivity ([9]; CC50/EC50, Caco-2 cells) of the same molecule?
Answer: The Selectivity was 295.

Question: What about the EC50 [9, 12] of the same molecule?
Answer: The EC50 was 300 nM.

Question: What about the EC90 [9, 12] of the same molecule?
Answer: The EC90 was 330 nM.

Question: And the EC50 (SRV A2 strain of RSV)?
Answer: The EC50 was 10 nM.

Question: And the EC90 (SRV A2 strain of RSV)?
Answer: The EC90 was 19 nM.
